Laboratory results taken from US20160271263A1 (Novo Nordisk A/S, priority 2010, published 2016).
Numbered stars: 1 amine (or outer) side, 2 acyl side, 3 side chain; on linkers, the order of the positions; unused ones are H or OH. Side chains are listed from the residue outwards. Peptide text beside a SMILES is read from it. * marks the point of attachment. C18 diacid = O=C(O)CCCCCCCCCCCCCCCCC(=O)*; γGlu = O=C(O)[C@H](CCC(=O)[*:2])N[*:1]; AEEA = NCCOCCOCC(=O)O

Target: glucagon receptor (Homo sapiens, UniProt P47871)
Test: cell-based
Description: The cells (14000 per well) were incubated (37° C., 5% CO2) overnight in 384-well plates. Next day the cells were loaded with a calcium responsive dye that only distributed into the cytoplasm. Probenecid, an inhibitor of the organic anion transporter, was added to prevent the dye from leaving the cell. A PDE inhibitor was added to prevent formatted cAMP from being degraded. […] End point data were collected after 6 minutes. An increase in intracellular cAMP was proportional to an increased in calcium concentrations in the cytoplasm. […] EC50-values were calculated in Prism5.

glucagon receptor, sequence (P47871 26-477): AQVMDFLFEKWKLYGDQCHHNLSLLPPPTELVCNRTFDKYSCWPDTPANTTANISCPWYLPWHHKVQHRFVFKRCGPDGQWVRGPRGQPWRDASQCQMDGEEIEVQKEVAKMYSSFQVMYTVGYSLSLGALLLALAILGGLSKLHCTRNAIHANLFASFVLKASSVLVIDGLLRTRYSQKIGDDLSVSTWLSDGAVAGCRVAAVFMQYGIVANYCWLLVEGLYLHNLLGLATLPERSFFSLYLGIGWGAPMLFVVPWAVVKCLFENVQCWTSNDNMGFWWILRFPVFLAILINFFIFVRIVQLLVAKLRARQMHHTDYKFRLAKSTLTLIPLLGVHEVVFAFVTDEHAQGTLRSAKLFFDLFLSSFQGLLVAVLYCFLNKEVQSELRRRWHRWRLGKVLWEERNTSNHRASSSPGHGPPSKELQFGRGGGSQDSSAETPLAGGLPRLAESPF

EC50 | Structure (SMILES)
105 pM | CC(C)C[C@H](NC(=O)[C@H](Cc1ccc(O)cc1)NC(=O)[C@H](CCCCN)NC(=O)[C@H](CO)NC(=O)[C@H](Cc1ccc(O)cc1)NC(=O)[C@H](CC(=O)O)NC(=O)[C@H](CO)NC(=O)[C@@H](NC(=O)[C@H](Cc1ccccc1)NC(=O)[C@@H](NC(=O)CNC(=O)[C@H](CCC(N)=O)NC(=O)[C@H](CO)NC(=O)[C@@H](N)Cc1c[nH]cn1)[C@@H](C)O)[C@@H](C)O)C(=O)N[C@@H](CC(=O)O)C(=O)N[C@@H](CCCCNC(=O)CC[C@H](NC(=O)CC[C@H](NC(=O)COCCOCCNC(=O)COCCOCCNC(=O)CC[C@H](NC(=O)CCCCCCCCCCCCCCCCC(=O)O)C(=O)O)C(=O)O)C(=O)O)C(=O)N[C@@H](CCCNC(=N)N)C(=O)N[C@@H](CCCNC(=N)N)C(=O)N[C@@H](C)C(=O)N[C@@H](CCC(N)=O)C(=O)N[C@@H](CC(=O)O)C(=O)N[C@@H](Cc1ccccc1)C(=O)N[C@H](C(=O)N[C@@H](CCC(N)=O)C(=O)N[C@@H](Cc1c[nH]c2ccccc12)C(=O)N[C@@H](CC(C)C)C(=O)N[C@@H](CC(C)C)C(=O)N[C@@H](CC(N)=O)C(=O)N[C@H](C(=O)O)[C@@H](C)O)C(C)C [Example 70, N^ε16-[(4S)-4-carboxy-4-[[(4S)-4-carboxy-4-[[2-[2-[2-[[2-[2-[2-[[(4S)-4-carboxy-4-(17-carboxyheptadecanoylamino)butanoyl]amino]ethoxy]ethoxy]acetyl]amino]ethoxy]ethoxy]acetyl]amino]butanoyl]amino]butanoyl]-[Lys^16,Leu^27]-Glucagon] (H-HSQGTFTSDYSKYLDK([γGlu-γGlu-AEEA-AEEA-γGlu-C18 diacid])RRAQDFVQWLLNT-OH; N-terminus and C-terminus assumed)
127 pM | CC(C)C[C@H](NC(=O)[C@H](Cc1ccc(O)cc1)NC(=O)[C@H](CCCNC(=N)N)NC(=O)[C@H](CO)NC(=O)[C@H](Cc1ccc(O)cc1)NC(=O)[C@H](CC(=O)O)NC(=O)[C@H](CO)NC(=O)[C@@H](NC(=O)[C@H](Cc1ccccc1)NC(=O)[C@@H](NC(=O)CNC(=O)[C@H](CCC(N)=O)NC(=O)[C@H](CO)NC(=O)[C@@H](N)Cc1c[nH]cn1)[C@@H](C)O)[C@@H](C)O)C(=O)N[C@@H](CC(=O)O)C(=O)N[C@@H](CO)C(=O)N[C@@H](CCCNC(=N)N)C(=O)N[C@@H](CCCNC(=N)N)C(=O)N[C@@H](C)C(=O)N[C@@H](CCC(N)=O)C(=O)N[C@@H](CC(=O)O)C(=O)N[C@@H](Cc1ccccc1)C(=O)N[C@H](C(=O)N[C@@H](CCCCNC(=O)CC[C@H](NC(=O)CC[C@H](NC(=O)COCCOCCNC(=O)COCCOCCNC(=O)CC[C@H](NC(=O)CCCCCCCCCCCCCCCCC(=O)O)C(=O)O)C(=O)O)C(=O)O)C(=O)N[C@@H](Cc1c[nH]c2ccccc12)C(=O)N[C@@H](CC(C)C)C(=O)N[C@@H](CC(C)C)C(=O)N[C@@H](CC(N)=O)C(=O)N[C@H](C(=O)O)[C@@H](C)O)C(C)C [Example 72, N^ε24-[(4S)-4-carboxy-4-[[(4S)-4-carboxy-4-[[2-[2-[2-[[2-[2-[2-[[(4S)-4-carboxy-4-(17-carboxyheptadecanoylamino)butanoyl]amino]ethoxy]ethoxy]acetyl]amino]ethoxy]ethoxy]acetyl]amino]butanoyl]amino]butanoyl]-[Arg^12,Lys^24,Leu^27]-Glucagon] (H-HSQGTFTSDYSRYLDSRRAQDFVK([γGlu-γGlu-AEEA-AEEA-γGlu-C18 diacid])WLLNT-OH; N-terminus and C-terminus assumed)
988 pM | CC(C)C[C@H](NC(=O)[C@H](Cc1ccc(O)cc1)NC(=O)[C@H](CCCCN)NC(=O)[C@H](CO)NC(=O)[C@H](Cc1ccc(O)cc1)NC(=O)[C@H](CC(=O)O)NC(=O)[C@H](CO)NC(=O)[C@@H](NC(=O)[C@H](Cc1ccccc1)NC(=O)[C@@H](NC(=O)CNC(=O)[C@H](CCC(N)=O)NC(=O)[C@H](CO)NC(=O)[C@@H](N)Cc1c[nH]cn1)[C@@H](C)O)[C@@H](C)O)C(=O)N[C@@H](CC(=O)O)C(=O)N[C@@H](CO)C(=O)N[C@@H](CCCNC(=N)N)C(=O)N[C@@H](CCCNC(=N)N)C(=O)N[C@@H](C)C(=O)N[C@@H](CCC(N)=O)C(=O)N[C@@H](CC(=O)O)C(=O)N[C@@H](Cc1ccccc1)C(=O)N[C@H](C(=O)N[C@@H](CCC(N)=O)C(=O)N[C@@H](CCCCNC(=O)CC[C@H](NC(=O)CC[C@H](NC(=O)COCCOCCNC(=O)COCCOCCNC(=O)CC[C@H](NC(=O)CCCCCCCCCCCCCCCCC(=O)O)C(=O)O)C(=O)O)C(=O)O)C(=O)N[C@@H](CC(C)C)C(=O)N[C@@H](CC(C)C)C(=O)N[C@@H](CC(N)=O)C(=O)N[C@H](C(=O)O)[C@@H](C)O)C(C)C [Example 76, N^ε25-[(4S)-4-carboxy-4-[[(4S)-4-carboxy-4-[[2-[2-[2-[[2-[2-[2-[[(4S)-4-carboxy-4-(17-carboxyheptadecanoylamino)butanoyl]amino]ethoxy]ethoxy]acetyl]amino]ethoxy]ethoxy]acetyl]amino]butanoyl]amino]butanoyl]-[Lys^25,Leu^27]-Glucagon]
81 pM | CC(C)C[C@H](NC(=O)[C@H](Cc1ccc(O)cc1)NC(=O)[C@H](CCCCN)NC(=O)[C@H](CO)NC(=O)[C@H](Cc1ccc(O)cc1)NC(=O)[C@H](CC(=O)O)NC(=O)[C@H](CO)NC(=O)[C@@H](NC(=O)[C@H](Cc1ccccc1)NC(=O)[C@@H](NC(=O)CNC(=O)[C@H](CCC(N)=O)NC(=O)[C@H](CO)NC(=O)[C@@H](N)Cc1c[nH]cn1)[C@@H](C)O)[C@@H](C)O)C(=O)N[C@@H](CC(=O)O)C(=O)N[C@@H](CCCCNC(=O)COCCOCCNC(=O)COCCOCCNC(=O)CC[C@H](NC(=O)CC[C@H](NC(=O)CC[C@H](NC(=O)CCCCCCCCCCCCCCCCC(=O)O)C(=O)O)C(=O)O)C(=O)O)C(=O)N[C@@H](CCCNC(=N)N)C(=O)N[C@@H](CCCNC(=N)N)C(=O)N[C@@H](C)C(=O)N[C@@H](CCC(N)=O)C(=O)N[C@@H](CC(=O)O)C(=O)N[C@@H](Cc1ccccc1)C(=O)N[C@H](C(=O)N[C@@H](CCC(N)=O)C(=O)N[C@@H](Cc1c[nH]c2ccccc12)C(=O)N[C@@H](CC(C)C)C(=O)N[C@@H](CC(C)C)C(=O)N[C@@H](CC(N)=O)C(=O)N[C@H](C(=O)O)[C@@H](C)O)C(C)C [Example 77, N^ε16-[2-[2-[2-[[2-[2-[2-[[(4S)-4-carboxy-4-[[(4S)-4-carboxy-4-[[(4S)-4-carboxy-4-(17-carboxyheptadecanoylamino)butanoyl]amino]butanoyl]amino]butanoyl]amino]ethoxy]ethoxy]acetyl]amino]ethoxy]ethoxy]acetyl]-[Lys^16,Leu^27]-Glucagon] (H-HSQGTFTSDYSKYLDK([AEEA-AEEA-γGlu-γGlu-γGlu-C18 diacid])RRAQDFVQWLLNT-OH; N-terminus and C-terminus assumed)
122 pM | CC(C)C[C@H](NC(=O)[C@H](Cc1ccc(O)cc1)NC(=O)[C@H](CCCCN)NC(=O)[C@H](CO)NC(=O)[C@H](Cc1ccc(O)cc1)NC(=O)[C@H](CC(=O)O)NC(=O)[C@H](CO)NC(=O)[C@@H](NC(=O)[C@H](Cc1ccccc1)NC(=O)[C@@H](NC(=O)CNC(=O)[C@H](CCC(N)=O)NC(=O)[C@H](CO)NC(=O)[C@@H](N)Cc1c[nH]cn1)[C@@H](C)O)[C@@H](C)O)C(=O)N[C@@H](CC(=O)O)C(=O)N[C@@H](CCCCNC(=O)CC[C@H](NC(=O)COCCOCCNC(=O)COCCOCCNC(=O)CC[C@H](NC(=O)CC[C@H](NC(=O)CCCCCCCCCCCCCCCCC(=O)O)C(=O)O)C(=O)O)C(=O)O)C(=O)N[C@@H](CCCNC(=N)N)C(=O)N[C@@H](CCCNC(=N)N)C(=O)N[C@@H](C)C(=O)N[C@@H](CCC(N)=O)C(=O)N[C@@H](CC(=O)O)C(=O)N[C@@H](Cc1ccccc1)C(=O)N[C@H](C(=O)N[C@@H](CCC(N)=O)C(=O)N[C@@H](Cc1c[nH]c2ccccc12)C(=O)N[C@@H](CC(C)C)C(=O)N[C@@H](CC(C)C)C(=O)N[C@@H](CC(N)=O)C(=O)N[C@H](C(=O)O)[C@@H](C)O)C(C)C [Example 78, N^ε16-[(4S)-4-carboxy-4-[[2-[2-[2-[[2-[2-[2-[[(4S)-4-carboxy-4-[[(4S)-4-carboxy-4-(17-carboxyheptadecanoylamino)butanoyl]amino]butanoyl]amino]ethoxy]ethoxy]acetyl]amino]ethoxy]ethoxy]acetyl]amino]butanoyl]-[Lys^16,Leu^27]-Glucagon] (H-HSQGTFTSDYSKYLDK([γGlu-AEEA-AEEA-γGlu-γGlu-C18 diacid])RRAQDFVQWLLNT-OH; N-terminus and C-terminus assumed)
141 pM | CC(C)C[C@H](NC(=O)[C@H](Cc1ccc(O)cc1)NC(=O)[C@H](CCCCN)NC(=O)[C@H](CO)NC(=O)[C@H](Cc1ccc(O)cc1)NC(=O)[C@H](CC(=O)O)NC(=O)[C@H](CO)NC(=O)[C@@H](NC(=O)[C@H](Cc1ccccc1)NC(=O)[C@@H](NC(=O)CNC(=O)[C@H](CCC(N)=O)NC(=O)[C@H](CO)NC(=O)[C@@H](N)Cc1c[nH]cn1)[C@@H](C)O)[C@@H](C)O)C(=O)N[C@@H](CC(=O)O)C(=O)N[C@@H](CO)C(=O)N[C@@H](CCCNC(=N)N)C(=O)N[C@@H](CCCNC(=N)N)C(=O)N[C@@H](C)C(=O)N[C@@H](CCC(N)=O)C(=O)N[C@@H](CC(=O)O)C(=O)N[C@@H](Cc1ccccc1)C(=O)N[C@H](C(=O)N[C@@H](CCC(N)=O)C(=O)N[C@@H](Cc1c[nH]c2ccccc12)C(=O)N[C@@H](CC(C)C)C(=O)N[C@@H](CC(C)C)C(=O)N[C@@H](CCCCNC(=O)CC[C@H](NC(=O)CC[C@H](NC(=O)CC[C@H](NC(=O)CCCCCCCCCCCCCCCCC(=O)O)C(=O)O)C(=O)O)C(=O)O)C(=O)N[C@H](C(=O)O)[C@@H](C)O)C(C)C [Example 79, N^ε28-[(4S)-4-carboxy-4-[[(4S)-4-carboxy-4-[[(4S)-4-carboxy-4-(17-carboxyheptadecanoylamino)butanoyl]amino]butanoyl]amino]butanoyl]-[Leu^27,Lys^28]-Glucagon]
